Test results published in patent US20260265244A1, “HETEROCYCLIC COMPOUNDS AS STING ANTAGONISTS” (Boehringer Ingelheim International GmbH, priority 2022, published 2026).
pIC50: −log10 of the molar value.

Columns and labels:
[1] = molecular target: T1, cGAMP binding domain of wild-type (GRR) human STING, residues 155-341 (Homo sapiens, UniProt Q86WV6, H232R); test: Increase of stability of STING protein against thermal denaturation, Differential Scanning Fluorimetry (DSF)
T1 construct: His-TEV-hSTING (WT); TEV protease cleavage site (N); made in house; host or cells: E. coli BL21 DE3
Description: Dye fluorescence is quenched in aqueous environment and increases upon association of the dye with the hydrophobic parts of the unfolding protein. […] The inflection point of the curve represents the “melting” temperature of the protein (Tm) which is calculated numerically using the Boltzmann equation.
Method: The thermal stability of the STING protein was measured using a specific expression construct of the cGAMP binding domain of wild-type (GRR) human STING comprising residues 155-341 and a N-terminal 8×His-tag (SEQ ID NO: 3) in assay buffer containing 20 mM Tris, 150 mM NaCl at pH7.5.
The assay uses Hard-Shell® PCR Plates 384-Well CLR/WHT (Catalog #HSP3805, BIO-RAD), Microseal® ‘B’ Adhesive Seals for PCR Plates (Catalog #MSB-1001, BIO-RAD) and was run on a CFX384 Real-Time System (Bio-Rad).
A DMSO stock solution of SYPRO orange (SIGMA S5692-500UL) was prepared.
Compound stock solutions (10 mM in DMSO) were diluted 1:2 in DMSO to an intermediate compound concentration of 5 mM and then further diluted 1:40 in assay buffer resulting in a compound concentration of 125 μM and 2.5% DMSO.
Fluorescent dye stock solution (5000×SYPRO Orange) was then mixed with target protein and buffer to a concentration of 15 uM Protein and 25×SYPRO Orange. 2 ul of this protein-dye-mixture was added to 8 ul compound solution. Final volume was 10 uL. 3-6 well positions were used as negative control (protein with 2% DMSO). The plates were prepared for duplicate measurement and centrifuged for 2 min at 1000 g. In the measurement, 160 cycles of 0.5° C. were used (temperature ramp 15 s/cycle, 15° C. to 95° C.).
Final Assay concentrations for compound characterization were as follows: 100 uM compound, 3 uM target protein, 5×SYPRO Orange, 2% DMSO in 10 ul. All dispensing steps were performed using a HamiltonStar pipetting robot (Hamilton).
Dissociation curves were processed in Bio-Rad CFX Manager. Peak type was set to “negative”. Compound codes for screen were assigned in the plate layout.
Two replicates of TM measurements were averaged, and the standard deviation was calculated. In cases of SD>1.5° C. the measurement was repeated.
The melting point (Tm) obtained for STING protein alone was subtracted from T obtained for protein incubated with ligand to generate ΔTm values.
Protein production and purification: The protein used for the biophysical experiments was a recombinant human STING protein comprising its cytosolic ectodomain. A codon optimized DNA sequence (for expression in Escherichia coli) encoding amino acid residues 155 to 341 (Swiss Prot Q86WV6) of human STING (WT) was synthesized by GeneArt (Regensburg, Germany) and inserted into a pET17b E. coli expression vector. The protein construct encodes an N-terminal 8×His-tag (SEQ ID NO: 3) followed by tobacco etch virus protease (TEV) cleavage site and the above STING gene sequence. The resulting protein sequence for the used STING variant is listed below:
For expression of recombinant human STING above construct was transformed into E. coli BL21 DE3 strain and grown in shake flasks in LB-medium at 37° C. Expression was induced by addition of isopropyl β-D-1-thiogalactopyranoside to a final concentration of 1 mM and cultures shaken overnight. Cell pellets were centrifuged and stored at −70° C. until further use. Protein was purified by cell thawing in lysis buffer (20 mM TRIS-HCl, pH 8, 300 mM NaCl, 2 mM mercaptoethanol, 20 mM imidazole, Complete Protease Inhibitor (Roche) and DNase (Roche)), followed by metal affinity purification using Ni-NTA resins and elution buffer consisting of 20 mM TRIS-HCl, pH 8, 300 mM NaCl, 2 mM mercaptoethanol, 300 mM imidazole and size exclusion chromatography in running buffer (20 mM TRIS-HCl, pH 8, 100 mM NaCl, 2 mM DTT). The peak fraction was collected and concentrated to 2.5 mg/mL.

[2] = test system: STING inhibition in human whole blood (IFNα2α production); test: Human whole blood assay (HWBA): cGAMP-stimulated IFNα2α production; type: cell-based; conditions: Homo sapiens
Description: For the detection of STING inhibition in physiological environment human whole blood was stimulated by the cyclic dinucleotide cGAMP. Pathway activity was monitored by measuring the IFNα2α production.
Assay method: Compounds were delivered as 10 mM DMSO solution and serial diluted and transferred to the 96-well Cell culture Plate (Corning #3595), prefilled with 20 μl OptiMEM (Gibco #11058-021) in each well, using an Echo acoustic dispenser. Typically, 8 concentrations were used with the highest concentration at 10 μM in the final assay volume followed by ~1:5 dilution steps. DMSO concentration was set to 0.1% in the final assay volume. The 96 well assay plate contained 9 test compounds, a reference compound and DMSO in control wells.
Collection of human whole blood from 3 or more healthy donors (male or female, no medication for 7 days, exception contraceptive and thyroxine) as Na-citrate blood (e.g. 3.8% in Monovettes from Sarstedt) is conducted in parallel. Whole blood was kept at room temperature for a maximum of 3 hours after collection until use in the assay.
160 μl of the whole blood samples were transferred to each well of the 96-well assay plates filled with compound/OptiMEM. All assay plates are prepared as duplicates with blood from different donors. Blood plates were kept at room temperature for 60 minutes and continuous shaking with 450 rpm, covered with the lid, but not sealed.
A 10× cGAMP assay solution was diluted from a 2 mM stock solution in 1×HBSS immediately before use at room temperature. 20 μl of the 10× cGAMP/HBSS were added to all compound and all high control wells, whereas HBSS only was added to all low control wells.
After covering assay plates with aera seals and the lid, blood plates were kept at room temperature for 30 minutes and continuous shaking with 450 rpm, followed by an overnight incubation of 22 h at 37° C. in the incubator, without shaking.
For the detection of IFNα-2α in human plasma, the biotinylated capture antibody (Antibody set IFNA2, Meso Scale Diagnostics #B21VH-3, including coating and capture antibody) was diluted 1:17.5 in Diluent 100 (Meso Scale Diagnostics #R50AA-4, according to the manufacturer. U-Plex MSD GOLD 96-well Small Spot Streptavidin SECTOR Plates (Meso Scale Diagnostics #L45SA-5) were coated with 25 μl diluted capture antibody. Coated plates were incubated for 60 min at room temperature under continuous shaking at 700 rpm. MSD IFNα-2α plates were washed three times with 150 μl wash buffer (1×HBSS, 0.05% Tween).
After blocking the plates with 100 μl block solution/well (1×HBSS with 0.2% Tween, 2% BSA) for 60 min at room temperature and continuous shaking at 700 rpm, plates were emptied as dry as possible by dumping just before continuing with the human plasma. Whole Blood assay plates were centrifuged at 1600 rpm for 10 minutes. 25 μl of supernatant was transferred with a pipetting robotics from each whole blood plate to the corresponding IFNα-2α plate. Plates were sealed with microplate seals and kept at room temperature again under continuous shaking at 700 rpm for two hours. Next MSD IFNα-2α plates were washed three times with 150 μl wash buffer (1×HBSS, 0.05% Tween), before adding 25 μl MSD SULFO-TAG IFNα-2α Antibody solution (1:100 diluted in Diluent 3 (Meso Scale Diagnostics #R50AP-2) to each well of the plates. Afterwards plates were sealed with microplate seals and kept at room temperature again under continuous shaking at 700 rpm for two hours. Finally MSD IFNα-2α plates were washed three times with 150 μl wash buffer (1×HBSS, 0.05% Tween). 150 μl 2×Read buffer was added to each well and plates were immediately measured with the MSD Sector S600 Reader using the vendor barcode.
Data evaluation and calculation: For data evaluation and calculation, % control calculation of each well was based on the mean of high (cGAMP stimulated control) and mean of low (unstimulated control) controls by using the following formula: […]

STING = conditions: in vitro and in BLM-induced SSc mice; cited from earlier work

T1 sequence (Q86WV6 with tags, fused parts or gaps H232R): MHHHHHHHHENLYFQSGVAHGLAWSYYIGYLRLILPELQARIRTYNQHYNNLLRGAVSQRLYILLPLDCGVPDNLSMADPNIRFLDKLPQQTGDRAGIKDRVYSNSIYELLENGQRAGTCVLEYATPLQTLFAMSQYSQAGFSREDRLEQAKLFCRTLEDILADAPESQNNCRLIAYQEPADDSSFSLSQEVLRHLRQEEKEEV

Structure (SMILES)	DSF [1]	pIC50 [2]	fibrosis and vasculopathy (STING)
Cn1cc2cc(-c3nc(-c4cccc5nn(C[C@H](O)c6ccc(OCc7ccccc7)cc6)cc45)c(C4CC4)n3C)c(C3CC3)nc2n1 [Example 4, (1R)-1-[4-(benzyloxy)phenyl]-2-[4-(5-cyclopropyl-2-{6-cyclopropyl-2-methyl-2H-pyrazolo[3,4-b]pyridin-5-yl}-1-methyl-1H-imidazol-4-yl)-2H-indazol-2-yl]ethan-1-ol]	27 K	6.10	
CCOc1nc2nn(C)cc2cc1-n1nc(-c2cccc3nn(C[C@H](O)c4ccccc4)cc23)c(C(C)C)c1C [Example 5, (1R)-2-[4-(1-{6-ethoxy-2-methyl-2H-pyrazolo[3,4-b]pyridin-5-yl}-5-methyl-4-(propan-2-yl)-1H-pyrazol-3-yl)-2H-indazol-2-yl]-1-phenylethan-1-ol]		7.21	
Cn1c(-c2cc3cn(CCCN4CCOCC4)nc3nc2C2CC2)nc(-c2cccc3nn(C[C@H](O)c4ccccc4)cc23)c1C1CC1 [Example 11, (1R)-2-[4-(5-cyclopropyl-2-{6-cyclopropyl-2-[3-(morpholin-4-yl)propyl]-2H-pyrazolo[3,4-b]pyridin-5-yl}-1-methyl-1H-imidazol-4-yl)-2H-indazol-2-yl]-1-phenylethan-1-ol]	30 K	7.15	
Cc1nc2nn(CC3COCCO3)cc2cc1-n1nc(-c2cccc3nn(C[C@H](O)c4ccccc4)cc23)c(C(C)C)c1C (stereo partly drawn) [Example 31, (1R)-2-[4-(1-{2-[(1,4-dioxan-2-yl)methyl]-6-methyl-2H-pyrazolo[3,4-b]pyridin-5-yl}-5-methyl-4-(propan-2-yl)-1H-pyrazol-3-yl)-2H-indazol-2-yl]-1-phenylethan-1-ol]	27 K	6.96	
COCCc1nc2nn(C)cc2cc1-n1nc(-c2cccc3nn(C[C@H](O)c4ccccc4)cc23)c(C(C)C)c1C [Example 38, (1R)-2-(4-{1-[6-(2-methoxyethyl)-2-methyl-2H-pyrazolo[3,4-b]pyridin-5-yl]-5-methyl-4-(propan-2-yl)-1H-pyrazol-3-yl}-2H-indazol-2-yl)-1-phenylethan-1-ol]	26 K	6.89	
Cc1nc2nn(CCCN(C)C)cc2cc1-n1nc(-c2cccc3nn(C[C@H](O)c4ccccc4)cc23)c(C(C)C)c1C [Example 43, (1R)-2-[4-(1-{2-[3-(dimethylamino)propyl]-6-methyl-2H-pyrazolo[3,4-b]pyridin-5-yl}-5-methyl-4-(propan-2-yl)-1H-pyrazol-3-yl)-2H-indazol-2-yl]-1-phenylethan-1-ol]		6.85	
COc1nc2nn(C)cc2cc1-n1nc(-c2cccc3nn(C[C@H](O)c4ccccc4)cc23)c(C(C)C)c1C [Example 59, (1R)-2-[4-(1-{6-methoxy-2-methyl-2H-pyrazolo[3,4-b]pyridin-5-yl}-5-methyl-4-(propan-2-yl)-1H-pyrazol-3-yl)-2H-indazol-2-yl]-1-phenylethan-1-ol]	27 K	6.62	
C=Cn1cc2cc(-c3nc(-c4cccc5nn(C[C@H](O)c6ccccc6)cc45)c(C4CC4)n3C)c(C3CC3)nc2n1 [Example 61, (1R)-2-[4-(5-cyclopropyl-2-{6-cyclopropyl-2-ethenyl-2H-pyrazolo[3,4-b]pyridin-5-yl}-1-methyl-1H-imidazol-4-yl)-2H-indazol-2-yl]-1-phenylethan-1-ol]	30 K	6.57	
Cc1c(C(C)C)c(-c2cccc3nn(C[C@H](O)c4ccccc4)cc23)nn1-c1cc2cn(C)nc2nc1OCCO [Example 71, 2-{[5-(3-{2-[(2R)-2-hydroxy-2-phenylethyl]-2H-indazol-4-yl}-5-methyl-4-(propan-2-yl)-1H-pyrazol-1-yl)-2-methyl-2H-pyrazolo[3,4-b]pyridin-6-yl]oxy}ethan-1-ol]	26 K	6.43	
Cc1nc2nn(CP(C)(C)=O)cc2cc1-n1nc(-c2cccc3nn(C[C@H](O)c4ccccc4)cc23)c(C(C)C)c1C [Example 77, (1R)-2-[4-(1-{2-[(dimethylphosphoryl)methyl]-6-methyl-2H-pyrazolo[3,4-b]pyridin-5-yl}-5-methyl-4-(propan-2-yl)-1H-pyrazol-3-yl)-2H-indazol-2-yl]-1-phenylethan-1-ol]	27 K	6.26	
Cc1nc2nn(CCC#N)cc2cc1-n1nc(-c2cccc3nn(C[C@H](O)c4ccccc4)cc23)c(C(C)C)c1C [Example 99]	29 K	7.46	
CCc1ccc(NC(=O)Nc2c[nH]c3ccccc23)cc1 [Example H151]			ameliorated fibrosis and vasculopathy
